Test results published in US20240262842A1, “SMALL MOLECULE INHIBITORS OF KRAS G12C MUTANT” (Merck Sharp & Dohme LLC, priority 2021, published 2024).
Like-named read-outs stand apart in the source and are kept apart here.

Molecular target: biotinylated KRAS G12C protein (GMP-PNP loaded) and GST-tagged Ras binding domain of c-RAF (Homo sapiens, UniProt P01116, C118S/C51S/C80L/G12C)
Assay: RAS:RAF-RBD binding assay (TR-FRET)
Settings: Table 4
[1] = 30-minute incubation of compound with KRAS G12C before RAF-RBD, read-out: IC50

biotinylated KRAS G12C protein (GMP-PNP loaded) and GST-tagged Ras binding domain of c-RAF, sequence (P01116 with tags, fused parts or gaps isoform P01116-2 G12C/C51S/C80L/C118S): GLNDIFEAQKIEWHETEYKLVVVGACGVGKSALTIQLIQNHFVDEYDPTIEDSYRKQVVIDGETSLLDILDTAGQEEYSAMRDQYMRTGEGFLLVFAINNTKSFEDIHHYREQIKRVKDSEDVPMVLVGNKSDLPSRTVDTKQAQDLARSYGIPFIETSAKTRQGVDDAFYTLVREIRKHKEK

| Structure (SMILES) | IC50 [1] [nM] | IC50 (IC50, 30-minute incubation of compound with KRAS G12C before RAF-RBD) [nM] |
| --- | --- | --- |
| Cc1nc2c3c(c(C(F)(F)F)cc2n1C)-c1cccn2c(C(=O)c4cc(F)c(NC(=O)/C=C/CN5CC6C(CO)C6C5)c(F)c4)cc(c12)CCO3 (single isomer, unassigned) [Example 278, (E)-3-(4-((4-(9,10-dimeth-yl-7-(trifluoromethyl)-13,14-dihydro-9H-imidazo-[4″,5″:5′,6′]-benzo[1′,2′:2,3]oxocino-[4,5,6-hi]indolizine-2-carbonyl)-2,6-difluoro-phenyl)amino)-4-oxobut-2-en-1-yl)-6-(hydroxy-methyl)-3-azabicyclo-[3.1.0]hexan-3-ium 2,2,2-trifluoroacetate] | 44.3 |  |
| CN1CCc2cc(C(=O)c3cc(F)c(NC(=O)/C=C/CNC4(C)COC4)c(F)c3)n3cccc(c23)-c2c(C(F)(F)F)cc3nn(C)cc3c21 (single isomer, unassigned) [Example 282, (E)-N-(4-((4-(10,12-dimethyl-7-(trifluorometh-yl)-10,12,13,14-tetrahydro-indolizino[8′,1′:4,5,6]-azocino[2,3-e]indazole-2-carbonyl)-2,6-difluoro-phenyl)amino)-4-oxobut-2-en-1-yl)-3-methyloxetan-3-aminium 2,2,2-trifluoro-acetate] | 57.6 |  |
| Cc1nc2c3c(c(C(F)(F)F)cc2n1C)-c1cccn2c(C(=O)c4cc(F)c(NC(=O)/C=C/CN5CC6(CCOC6)C5)c(F)c4)cc(c12)CCO3 (single isomer, unassigned) [Example 284] | 40.4 |  |
| COCc1nc2c3c(c(OC)cc2n1C)-c1cccn2c(C(=O)c4cc(F)c(NC(=O)/C=C/CN5CC6(CCCOC6)C5)c(F)c4)cc(c12)CCN3C (single isomer, unassigned) [Example 292, mono((E)-2-(4-((2,6-difluoro-4-(7-methoxy-10-(methoxymethyl)-9,12-dimethyl-9,12,13,14-tetra-hydroimidazo[4″,5″: 5′,6′]benzo[1′,2′:2,3]azo-cino[4,5,6-hi]indolizin-11-ium-2-carbonyl)phenyl)-amino)-4-oxobut-2-en-1-yl)-6-oxa-2-azaspiro[3.5]-nonan-2-ium) mono(2,2,2-trifluoroacetate)] | 84.9 |  |
| Cc1nc2c3c(c(C(F)(F)F)cc2n1C)-c1cccn2c(C(=O)c4cc(F)c(NC(=O)/C=C/CN5CCC5CC(C)(C)O)c(F)c4)cc(c12)CCN3C (single isomer, unassigned) [Example 298, (E)-1-(4-((2,6-difluoro-4-(9,10,12-trimethyl-7-(trifluoromethyl)-9,12,13,14-tetrahydro-imidazo[4″,5″:5′,6′]benzo-[1′,2′:2,3]azocino[4,5,6-hi]indolizine-2-carbonyl)-phenyl)amino)-4-oxobut-2-en-1-yl)-2-(2-hydroxy-2-methylpropyl)azetidin-1-ium 2,2,2-trifluoro-acetate] | 41.6 |  |
| Cc1nc2c3c(c(C(F)(F)F)cc2n1C)-c1cccn2c(C(=O)c4cc(F)c(NC(=O)/C=C/CN5CCC5CC(C)(C)O)c(F)c4)cc(c12)CCN3C (single isomer, unassigned) [Example 299, (E)-1-(4-((2,6-difluoro-4-(9,10,12-trimethyl-7-(trifluoromethyl)-9,12,13,14-tetrahydro-imidazo[4″,5″:5′,6′]benzo-[1′,2′:2,3]azocino[4,5,6-hi]indolizine-2-carbonyl)-phenyl)amino)-4-oxobut-2-en-1-yl)-2-(2-hydroxy-2-methylpropyl)azetidin-1-ium 2,2,2-trifluoroacetate] | 52.5 |  |
| Cc1nc2c3c(c(C(F)(F)F)cc2n1C)-c1cccn2c(C(=O)c4cc(F)c(NC(=O)/C=C/CN5CC6(CCCOC6)C5)c(F)c4)cc(c12)CCO3 [Example 253, mono((E)-2-(4-(4-(6-oxa-2-azaspiro[3.5]nonan-2-ium-2-yl)but-2-enamido)-3,5-difluorobenzoyl)-9,10-dimethyl-7-(trifluorometh-yl)-13,14-dihydro-9H-imidazo[4″,5″:5′,6′]benzo-[1′,2′:2,3]oxocino[4,5,6-hi]indolizin-11-ium) mono-(2,2,2-trifluoroacetate)] | 24.8 |  |
| Cc1nc2c3c(c(C(F)(F)F)cc2n1C)-c1cccn2c(C(=O)c4cc(F)c(NC(=O)C=CCN5CCC5CC(=O)N(C)C)c(F)c4)cc(c12)CCO3 [Example 254, mono(2-(4-((E)-4-((2S)-2-(2-(dimethylamino)-2-oxoethyl)azetidin-1-ium-1-yl)but-2-enamido)-3,5-difluorobenzoyl)-9,10-dimethyl-7-(trifluorometh-yl)-13,14-dihydro-9H-imidazo[4″,5″:5′,6′]benzo-[1′,2′:2,3]oxocino[4,5,6-hi]indolizin-11-ium) mono(2,2,2-trifluoro-acetate)] | 20.9 |  |
| Cc1nc2c3c(c(C(F)(F)F)cc2n1C)-c1cccn2c(C(=O)c4cc(F)c(NC(=O)C=CCN5CCCC5C5(O)CC5)c(F)c4)cc(c12)CCO3 (stereo not shown) [Example 255, mono(2-(3,5-difluoro-4-((E)-4-((28)-2-(1-hydroxy-cyclopropyl)pyrrolidin-1-ium-1-yl)but-2-enamido)-benzoyl)-9,10-dimethyl-7-(trifluoromethyl)-13,14-dihydro-9H-imidazo-[4″,5″:5′,6′]benzo[1′,2′: 2,3]oxocino[4,5,6-hi]-indolizin-11-ium) mono-(2,2,2-trifluoroacetate)] | 11.7 |  |
| Cc1nc2c3c(c(C(F)(F)F)cc2n1C)-c1cccn2c(C(=O)c4cc(F)c(NC(=O)/C=C/CN5CCC[C@H]5CO)c(F)c4)cc(c12)CCO3 [Example 256, mono(2-(3,5~difluoro-4-((E)-4-((2S)-2-(hydroxy-methyl)pyrrolidin-1-ium-1-yl)but-2-enamido)ben-zoyl)-9,10-dimethyl-7-(trifluoromethyl)-13,14-dihydro-9H-imidazo-[4,5″:5′,6′]benzo[1′,2′: 2,3]oxocino[4,5,6-hi]-indolizin-11-ium) mono-(2,2,2-trifluoroacetate)] | 4.7 |  |
| Cc1nc2c3c(c(C(F)(F)F)cc2n1C)-c1cccn2c(C(=O)c4cc(F)c(NC(=O)C=CCN5CC6CC5CO6)c(F)c4)cc(c12)CCO3 [Example 257, mono(2-(4-((E)-4-((1S,4S)-2-oxa-5-aza-bicyclo-[2.2.1]heptan-5-ium-5-yl)but-2-enamido)-3,5-difluorobenzoyl)-9,10-dimethyl-7-(trifluorometh-yl)-13,14-dihydro-9H-imidazo[4″,5″:5′,6′]benzo-[1′,2′:2,3]oxocino[4,5,6-hi]indolizin-11-ium) mono(2,2,2-trifluoro-acetate)] | 9.69 |  |
| Cc1nc2c3c(c(C(F)(F)F)cc2n1C)-c1cccn2c(C(=O)c4cc(F)c(NC(=O)/C=C/[C@@H]5C[C@@H](F)CN5)c(F)c4)cc(c12)CCO3 [Example 260, (2S,4R)-2-((E)-3-((4-(9,10-dimethyl-7-(tri-fluoromethyl)-13,14-dihydro-9H-imidazo-[4″,5″:5′,6′]benzo[1′,2′: 2,3]oxocino[4,5,6-hi]-indolizine-2-carbonyl)-2,6-difluorophenyl)-amino)-3-oxoprop-1-en-1-yl)-4-fluoropyrrolidin-1-ium 2,2,2-trifluoro-acetate] | 11.7 |  |
| CO[C@H]1CC[C@H](NC/C=C/C(=O)Nc2ccc(C(=O)c3cn4c5c(cccc35)-c3c(C(F)(F)F)cc5c(nc(C)n5C)c3OCC4)cc2)CC1 [Example 263, mono(2-(4-((E)-4-(((1r, 4r)-4-methoxycyclohexyl)-ammonio)but-2-enamido)-benzoyl)-8,9-dimethyl-6-(trifluoromethyl)-12,13-dihydro-8H-imidazo-[4″,5″:3′,4′]benzo[1′,2′: 7,8][1,4]oxazocino[6,5,4-hi]indol-10-ium) mono-(2,2,2-trifluoroacetate)] |  | 9.25 |
| Cc1nc2c3c(c(C(F)(F)F)cc2n1C)-c1cccn2c(C(=O)c4cc(F)c(NC(=O)/C=C/CN[C@@H]5CCCC[C@@H]5O)c(F)c4)cc(c12)CCO3 [Example 264] | 7.34 |  |
| Cc1nc2c3c(c(C(F)(F)F)cc2n1C)-c1cccn2c(C(=O)c4cc(F)c(NC(=O)/C=C/CN[C@H]5CCCC[C@H]5O)c(F)c4)cc(c12)CCO3 [Example 265] | 12.3 |  |
| CO[C@@H]1CCCC[C@@H]1NC/C=C/C(=O)Nc1c(F)cc(C(=O)c2cc3c4c(cccn24)-c2c(C(F)(F)F)cc4c(nc(C)n4C)c2OCC3)cc1F [Example 266, (E)-N-(4-(9,10-dimethyl-7-(trifluoromethyl)-13,14-dihydro-9H-imidazo-[4″,5″:5′,6′]benzo[1′,2′: 2,3]oxocino[4,5,6-hi]-indolizine-2-carbonyl)-2,6-difluorophenyl)-4-(((1S,2R)-2-methoxy-cyclohexyl)amino)but-2-enamide] | 16.1 |  |
| Cc1nc2c3c(c(C(F)(F)F)cc2n1C)-c1cccn2c(C(=O)c4cc(F)c(NC(=O)/C=C/CNC5(C)CCOCC5)c(F)c4)cc(c12)CCO3 [Example 267, mono((E)-2-(3,5-difluoro-4-(4-((4-methyltetrahydro-2H-pyran-4-yl)ammonio)-but-2-enamido)benzoyl)-9,10-dimethyl-7-(trifluoro-methyl)-13,14-dihydro-9H-imidazo[4″,5″:5′,6′]-benzo[1′,2′:2,3]oxocino-[4,5,6-hi]indolizin-11-ium)mono(2,2,2-trifluoro-acetate)] | 3.69 |  |
| CO[C@H]1CCCC[C@H]1NC/C=C/C(=O)Nc1c(F)cc(C(=O)c2cc3c4c(cccn24)-c2c(C(F)(F)F)cc4c(nc(C)n4C)c2OCC3)cc1F [Example 268, (E)-N-(4-(9,10-dimethyl-7-(trifluoromethyl)-13,14-dihydro-9H-imidazo-[4″,5″:5′,6′]benzo[1′,2′: 2,3]oxocino[4,5,6-hi]-indolizine-2-carbonyl)-2,6-difluorophenyl)-4-(((1R,2S)-2-methoxy-cyclohexyl)amino)but-2-enamide] | 12.8 |  |
| Cc1nc2c3c(c(C(F)(F)F)cc2n1C)-c1cccn2c(C(=O)c4cc(F)c(NC(=O)/C=C/CN[C@@H]5CCCC(F)(F)[C@@H]5O)c(F)c4)cc(c12)CCO3 [Example 274] | 20.4 |  |
